What all share (type): physicochemical
The nature of series [1]: Rate of detritylation and degradation of 5'-trityldeoxynucleosides using ZnBr2 at room temperature (Table III). Particulars: for Detritylation time: 100% detritylation; for Detritylation %: <1 min. The text has this: (§1) The procedure merely requires contacting the reactants preferably in a reaction solvent and detritylation occurs within short reaction times. The Lewis acid is normally suspended in the reaction solvent and the solvent is usually water-free to prevent reaction with the Lewis acid to form protic acids. In present experience, nitromethane is the preferred solvent although a variety of other solvents can be used, e.g. dioxane and tetrahydrofuran and mixtures of such solvents with each other and other solvents such as acetone, methylene chloride, and the like.
The results obtained with various tritylthymidines at room temperature with zinc bromide is give in Table III.
The Rate of Detritylation and Degradation of 5'-
Trityldeoxynucleosides Using ZnBr2 at Room

The nature of series [2]: Rate of detritylation of various tritylthymidines using saturated ZnBr2 in nitromethane at 0° C. (Table IV). Particulars: for % Detritylation: at the time of the same line (1, 10 or 30 min); for Detritylation time: time for the % detritylation of the same line.
Description: as §1
and at 0° C. in Table IV.
The Rate of Detritylation of Various Tritylthymidines
Using Saturated ZnBr2 in Nitromethane at 0° C.

Series [3] is described as follows: Protic acid hydrolysis rates of triarylmethyl groups attached to the 5'-hydroxyl of deoxynucleosides (Table VIII). Particulars: 2% toluenesulfonic acid in chloroform:methanol (7:3). The method, then: The 5'-triarylmethyldeoxynucleosides were treated with protic and Lewis acids using carefully controlled conditions. The results of these studies are also recorded in Tables VII and VIII. […] The rates are more variable with protic acids.
^1 Reaction conditions were 2% toluenesulfonic acid in
chloroform:methanol (7:3). Aliquots were removed from the reaction
solution, quenched with ammonium acetate and analyzed visually after tlc
and exposure to HCl vapors. Time points were taken at 15, 30, 45, 60, 90,

A short description of series [4]: Rate of detritylation and depurination using various solutions (Table II). Particulars: for Detritylation time: 100% detritylation.
Description: A particularly preferred embodiment of the present invention is the detritylation of the 5'-O trityl nucleosides, deoxynucleotides, oligonucleotides, oligodeoxynucleotides, polynucleotides and polydeoxynucleotides using a Lewis acid, particularly zinc bromide, although other Lewis acids can also be employed, e.g. titanium tetrachloride. […] The process is also specific for 5'-O-trityl and thus provides a very practical procedure to permit production of 3'-O-trityl blocked nucleosides by reaction with the 3'-O and 5'-O ditritylated compound.
as §1
The Rate of Detritylation and Depurination of 5'-
Dimethoxytrityl-N--benzoyldeoxyadenosine Using
*All depurination results summarized in this communication were obtained
by analyzing reaction mixtures using reverse phase high pressure liquid
chromatography. Estimates of detritylation times were by thin layer
**A nitromethane solution saturated with ZnBr2 is approximately 0.1

A short description of series [5]: Spectral characteristics of selected triarylmethyl alcohols (Table IX). Particulars: saturated ZnBr2 nitromethane solution; for Extinction Coefficient: at the λ maximum of the same line. The method, then:
of selected triarylmethyl alcohols.
^2 All spectra were taken in a saturated ZnBr2 nitromethane
solution. All spectra were recorded on a Carey model 21, scanning from 35

The values that follow come from US4500707A, “Nucleosides useful in the preparation of polynucleotides” (University Patents, Inc., priority 1982, dated 1985).

Where “and” joins values, the source holds several entries; their conditions need not be identical. Equal entries are not always repeated.

In series [1], `COc1ccc(C(OC[C@H]2O[C@@H](n3cc(C)c(=O)[nH]c3=O)C[C@@H]2O)(c2ccccc2)c2ccc(OC)cc2)cc1` [5'-Dimethoxytritylthymidine] gave a Degradation time of 24 h, a Detritylation time of under 1 min and a Detritylation % of 100%. In addition, in series [2], the “% Detritylation” value is listed as 50% and the Detritylation time worked out at 1 min. Also, the “Time to Complete Hydrolysis” value in series [3] worked out at 30 s.
For the molecule `COc1ccc(C(OC[C@H]2O[C@@H](n3cnc4c(NC(=O)c5ccccc5)ncnc43)C[C@@H]2O)(c2ccccc2)c2ccc(OC)cc2)cc1` [5'-O-dimethoxytrityl-N-benzoyldeoxyadenosine], the Depurination time worked out at 8 h in series [4] (0.5% toluenesulfonic acid/CHCl3:CH3OH (7:3), 0° C., 50% depurination); 0.083 h in series [4] (2% toluenesulfonic acid/CHCl3:CH3OH (7:3), 18° C., 50% depurination); 21 h in series [4] (satd. ZnBr2/CH3NO2, 0° C., <5% depurination); 10 h in series [4] (satd. ZnBr2/CH3NO2, 18° C., 50% depurination). Moreover, the Detritylation time in series [4] (0.5% toluenesulfonic acid/CHCl3:CH3OH (7:3), 0° C.) is 10 min; in series [4] (2% toluenesulfonic acid/CHCl3:CH3OH (7:3), 18° C.) it was under 1 min; in series [4] (satd. ZnBr2/CH3NO2, 0° C.) it was 10 min; in series [4] (satd. ZnBr2/CH3NO2, 18° C.), under 1 min. The Detritylation % in series [4] (0.5% toluenesulfonic acid/CHCl3:CH3OH (7:3), 0° C., 10 min) is on record as 100%; in series [4] (2% toluenesulfonic acid/CHCl3:CH3OH (7:3), 18° C., <1 min), 100%; in series [4] (satd. ZnBr2/CH3NO2, 0° C., 10 min), 100%; in series [4] (satd. ZnBr2/CH3NO2, 18° C., <1 min), 100%. In addition, the Depurination % in series [4] (0.5% toluenesulfonic acid/CHCl3:CH3OH (7:3), 0° C., 8 hrs) is listed as 50%; in series [4] (2% toluenesulfonic acid/CHCl3:CH3OH (7:3), 18° C., 5 min) it was 50%; in series [4] (satd. ZnBr2/CH3NO2, 0° C., 21 hrs), under 5%; in series [4] (satd. ZnBr2/CH3NO2, 18° C., 10 hrs), 50%. The “Time to Complete Hydrolysis” value in series [3] came out at 30 s.
In series [1], `COc1ccc(C(OC[C@H]2O[C@@H](n3ccc(NC(=O)c4ccccc4)nc3=O)C[C@@H]2O)(c2ccccc2)c2ccc(OC)cc2)cc1` [5'-O-dimethoxytrityl-N-benzoyldeoxycytidine] yielded a Degradation time of 24 h, a Detritylation time of under 1 min and a Detritylation % of 100%. For the same molecule, the “Time to Complete Hydrolysis” value in series [3] was found to be 30 s.
Taken in the same sequence, the figures for `COc1ccc(C(OC[C@H]2O[C@@H](n3cnc4c(=O)[nH]c(NC(=O)C(C)C)nc43)C[C@@H]2O)(c2ccccc2)c2ccc(OC)cc2)cc1` [5'-O-dimethoxytrityl-N-isobutyryldeoxyguanosine] were 50 h, under 1 min, 100% and 30 s.
For `Cc1cn([C@H]2C[C@H](O)[C@@H](COC(c3ccccc3)(c3ccccc3)c3ccccc3)O2)c(=O)[nH]c1=O` [5'-Tritylthymidine], in series [2], the “% Detritylation” value is 50% and the Detritylation time amounted to 10 min.
With `COc1ccccc1C(OC[C@H]1O[C@@H](n2cnc3c(=O)[nH]c(NC(=O)C(C)C)nc32)C[C@@H]1O)(c1ccccc1)c1ccccc1OC` [R1 = R2 = b; R3 = a, G], in series [3], the “Time to Complete Hydrolysis” value was found to be 45 s and the “t1/2 in H+” value worked out at 15 s.
As for `COc1ccccc1C(O)(c1ccccc1)c1ccccc1OC` [R1 = R2 = b; R3 = a], the “λ Maximum(s)” value in series [5] is 423 nanometers and 503 nanometers and 586 nanometers.
As to `COc1ccccc1C(OC[C@H]1O[C@@H](n2ccc(NC(=O)c3ccccc3)nc2=O)C[C@@H]1O)(c1ccccc1OC)c1cccc2ccccc12` [R1 = R2 = b; R3 = n, C], in series [3], the “Time to Complete Hydrolysis” value is 120 s.
As to `COc1ccccc1C(OC[C@H]1O[C@@H](n2cc(C)c(=O)[nH]c2=O)C[C@@H]1O)(c1ccccc1OC)c1cccc2ccccc12` [R1 = R2 = b; R3 = n, T], in series [3], the “Time to Complete Hydrolysis” value stood at 90 s and the “t1/2 in H+” value came to 45 s.
Turning to `COc1ccccc1C(O)(c1ccccc1OC)c1cccc2ccccc12` [R1 = R2 = b; R3 = n], in series [5], the “λ Maximum(s)” value is 586 nanometers and the “Extinction Coefficient” value was 15500 Molar^-1 cm^-1.
Regarding `COc1ccc(C(O)(c2ccccc2)c2cccc3ccccc23)cc1` (stereo not shown) [R1 = a; R2 = c; R3 = n], in series [5], the “λ Maximum(s)” value was 545 nanometers and 455 nanometers; the “Extinction Coefficient” value was 25000 Molar^-1 cm^-1 and 28000 Molar^-1 cm^-1.
For the molecule `OC(c1ccccc1)(c1ccc(F)cc1)c1cccc2ccccc12` (stereo not shown) [R1 = a; R2 = e; R3 = n], the “λ Maximum(s)” value in series [5] (listed as R1 = a, R2 = n, R3 = e) was 577 nanometers and 421 nanometers.
`Cc1ccc(C(OC[C@H]2O[C@@H](n3cnc4c(NC(=O)c5ccccc5)ncnc43)C[C@@H]2O)(c2ccccc2)c2ccccc2)cc1` [R1 = h; R2 = R3 = a, A]: in series [3], the “Time to Complete Hydrolysis” value came to 240 s and the “t1/2 in H+” value amounted to 60 s.
As for `Cc1ccc(C(O)(c2ccccc2)c2ccccc2)cc1` [R1 = h; R2 = R3 = a], in series [5], the “λ Maximum(s)” value is recorded as 452 nanometers and the “Extinction Coefficient” value is 42000 Molar^-1 cm^-1.
Turning to `COc1ccc(C(OC[C@H]2O[C@@H](n3cc(C)c(=O)[nH]c3=O)C[C@@H]2O)(c2ccccc2)c2cccc3ccccc23)cc1` (stereo partly shown) [R1 = n; R2 = c; R3 = a, T], in series [3], the “Time to Complete Hydrolysis” value turned out to be 45 s and the “t1/2 in H+” value was found to be 30 s.
On to `Cc1cn([C@H]2C[C@H](O)[C@@H](COC(c3ccccc3)(c3ccc(F)cc3)c3cccc4ccccc34)O2)c(=O)[nH]c1=O` (stereo partly shown) [R1 = n; R2 = e; R3 = a, T], for which, in series [3], the “Time to Complete Hydrolysis” value was over 600 s and the “t1/2 in H+” value was 180 s.
